From patent US12414918B2, “Pharmaceutical composition of lipid nanoparticle for delivering nucleic acid drug containing trehalose derivative and novel structure-maintaining lipid compound” (SML BIOPHARM CO., LTD., priority 2021, dated 2025)

Tested on: Renilla luciferase (R/L) expression
Experiment: Evaluation of delivery efficiency by detection of protein expression level (R/L mRNA-LNP injected intradermally into mouse ear, luminescence of ear lysate)
Format: in vivo, ICR mice
Settings: ionizable lipid:trehalose-based lipid:DOPE:cholesterol (or substitute):DMG-PEG 25:25:10:38.5:1.5
Method: An RNA platform in which a nucleic acid sequence encoding Renilla luciferase (R/L), which has an IRES element derived from encephalomyocarditis virus (EMCV) and is a known reporter gene, was inserted as a target sequence was constructed. The template DNA was designed and the nucleic acid molecule of the single-stranded RNA platform was constructed using an IVT procedure.
Lipid nanoparticles were prepared from 0.625 mg/mL of an RNA solution (50 mM sodium citrate buffer, 110 mM NaCl, pH=4.0) and a lipid-mixture solution (ethanol) using a laboratory mixer and emulsifier (NanoAssembir Spark, Precision NanoSystems) and subjected to solvent conversion with physiological saline using a filter tube for centrifugation (UFC5010, Amicon). […]
The experiment was performed according to the following procedure. […] R/L, which was actually tested, expression, and maintenance were detected at two points of time: after 6 hours and 24 hours.
Each mouse was anesthetized using a respiratory anesthetic, and a drug that satisfied the experimental conditions was injected into the mouse through an insulin syringe. […] Then, 20 μl of the mixture was transferred to a white 96-well plate, 100 μl of Renilla luciferase assay substrate from Promega Corporation was added thereto, and luminescence was measured to compare expression.

Compound | usability as cholesterol substitute in lipid nanoparticles
CCC(C)CCOC(=O)CC[C@H](C)[C@H]1CC[C@H]2[C@@H]3CC[C@@H]4C[C@H](O)CC[C@]4(C)[C@H]3CC[C@]12C (some centres unmarked) [Formula 5] | appropriate cholesterol substitutes
CCCCOC(=O)CC[C@H](C)[C@H]1CC[C@H]2[C@@H]3CC[C@@H]4C[C@H](O)CC[C@]4(C)[C@H]3CC[C@]12C [Formula 4] | appropriate cholesterol substitutes
